Data taken from US20140336130A1 (PHIGENIX, INC., priority 2011, published 2014).
“Also recorded” adds a separate entry of the source.

Key:
Type in all cases: cell-based, human
[1] = tested on: PAX2 expression; assay: PAX2 expression after AngII or pathway blockers; details: for PAX2 expression, fold increase: PD123319 5 μM; for PAX2 expression reduced by, compared to untreated control: Los 5 μM; for increase in PAX2 expression relative to untreated hPrEC cells: 10 μM AngII
[2] = tested on: phospho-JNK; assay: Western blot of phospho-JNK; details: DU145
Experimental: (§1) Western blot analysis was performed as described in Example 2. […] After washing, the membranes were incubated with anti-rabbit antibody conjugated to horseradish peroxidase (HRP) (dilution 1:5000; Sigma), and signal detection was visualized using chemilluminescence reagents (Pierce) on an Alpha Innotech Fluorchem 8900. As a control, blots were stripped and re-probed with mouse anti-β-actin primary antibody (1:5000; Sigma-Aldrich) and HRP— conjugated anti-mouse secondary antibody (1:5000; Sigma-Aldrich), and signal detection was again visualized.\

[3] = tested on: phospho-PAX2; assay: Western blot of phospho-PAX2; details: DU145
Experimental: as §1

[4] = tested on: phospho-STAT3; assay: Western blot of phospho-STAT3; details: DU145; vs untreated control
Experimental: as §1

[5] = tested on: PAX2 protein; assay: Western blot analysis of PAX2 protein; details: DU145, Los 5 μM, U0126 25 μM, PD98059 20 μM, AICAR 250 μM, vs untreated control
Experimental: Briefly, cells were harvested by trypsinization and washed twice with PBS. Lysis buffer was prepared according to the manufacturer's instructions (Sigma), and was then added to the cells. Following a 15 minute incubation period at 4° C. on an orbital shaker, cell lysate were then collected and centrifuged for 10 minutes at 12000×g to pellet cellular debris. The protein-containing supernatant were then collected and quantitated. Next, 25 μg protein extract was loaded onto an 8-16% gradient SDS-PAGE (Novex). Following electrophoresis, proteins were transferred to PVDF membranes, and then blocked with 5% nonfat dry milk in TTBS (0.05% Tween 20 and 100 mM Tris-Cl) for 1 hour. Blots were then probed with rabbit anti-PAX2 primary antibody (Zymed, San Francisco, Calif.) at a 1:2000 dilution. After washing, the membranes were incubated with anti-rabbit antibody conjugated to horseradish peroxidase (HRP) (dilution 1:5000; Sigma), and signal detection was visualized using chemilluminescence reagents (Pierce) on an Alpha Innotech Fluorchem 8900. As a control, blots were stripped and reprobed with mouse anti-β-actin primary antibody (1:5000; Sigma-Aldrich) and HRP— conjugated anti-mouse secondary antibody (1:5000; Sigma-Aldrich) and signal detection was again visualized.
(§2) Western blot analysis was performed as described in Example 2. Blots were then probed with primary antibody (anti-PAX2, -phospho-PAX2, -JNK, -phospho-JNK, -ERK1/2, or -phospho-ERK1/2) (Zymed, San Francisco, Calif.) at 1:1000-2000 dilutions. After washing, the membranes were incubated with anti-rabbit antibody conjugated to horseradish peroxidase (HRP) (dilution 1:5000; Sigma), and signal detection was visualized using chemilluminescence reagents (Pierce) on an Alpha Innotech Fluorchem 8900. As a control, blots were stripped and re-probed with mouse anti-β-actin primary antibody (1:5000; Sigma-Aldrich) and HRP— conjugated anti-mouse secondary antibody (1:5000; Sigma-Aldrich), and signal detection was again visualized.\
Western blot analysis was performed as described in Example 2.

[6] = tested on: ERK; assay: Western blot of ERK protein; details: DU145; Los
Experimental: as §2

[7] = tested on: phospho-ERK 1/2; assay: Western blot of phospho-ERK1/2; details: DU145, Los
Experimental: as §2

[8] = tested on: DU145; assay: Thymidine incorporation, DU145
Experimental: Proliferation of cells was determined by [3H] thymidine ribotide ([3H] TdR) incorporation into DNA. 0.5×10^6 cells/well of suspension DU145 cells were plated in their appropriate media. Cells were incubated for 72 h with or without the presence of AngII at the indicated concentrations. Cells were exposed to 37 kBq/ml [methyl-3H] thymidine in the same medium for 6 h. The adherent cells were fixed by 5% trichloroacetic acid and lysed in SDS/NaOH lysis buffer overnight. Radioactivity was measured by Beckman LS3801 liquid scintillation counter (Canada). Suspension cell cultures were harvested by cell harvester (Packard instrument Co., Meriden, Conn.), and radioactivity was measured by 1450 microbeta liquid scintillation counter (PerkinElmer Life Sciences).

[9] = tested on: DEFB1; assay: QRT-PCR of DEFB1 (hBD-1) expression; details: for decrease in DEFB1 expression relative to untreated hPrEC cells: 10 μM AngII
Experimental: Briefly, total RNA was isolated using the SV Total RNA Isolation System (Promega, Madison, Wis.) from approximately 1×10^6 cells harvested by trypsinizing. Cells were lysed and total RNA was isolated by centrifugation through spin columns. For cells collected by LCM, total RNA was isolated using the PicoPure RNA Isolation Kit (Arcturus Biosciences, Mt. View, Calif.) following the manufacturer's protocol. Total RNA (0.5 μg per reaction) from both sources was reverse transcribed into cDNA utilizing random primers (Promega). AMV Reverse Transcriptase II enzyme (500 units per reaction; Promega) was used for first strand synthesis and Tfl DNA Polymerase for second strand synthesis (500 units per reaction; Promega) as per the manufacturer's protocol. In each case, 50 pg of cDNA was used per ensuing PCR reaction. Two-step QRT-PCR was performed on cDNA generated using the MultiScribe Reverse Transcripatase from the TaqMan Reverse Transcription System and the SYBR® Green PCR Master Mix (Applied Biosystems).
Forty cycles of PCR were performed under standard conditions using an annealing temperature of 56° C. In addition, β-actin (Table 2) was amplified as a housekeeping gene to normalize the initial content of total cDNA. […]
Quantitative real-time RT-PCR was performed as described in Example 1 to verify changes in gene expression following PAX2 knockdown in PC3 and DU145 prostate cancer cell lines and the hPrEC normal prostate epithelial cells. […] Quantification was determined by the cycle number where exponential amplification began (threshold value) and averaged from the values obtained from the triplicate repeats. […] Relative expression was calculated as the ratio between each genes and GAPDH. […]
QRT-PCR was performed as previously described (Gibson et al., 2007). […] Gene expression in benign prostate tissue samples was calculated as the expression ratio compared to β-actin. Levels of hBD-1 expression in malignant prostate tissue, hPREC prostate primary culture, and prostate cancer cell lines before and after induction were calculated relative to the average level of hBD-1 expression in hPrEC cells. […]

[10] = DU145, U0126 25 μM, PD98059 20 μM

Cc1cc(Cn2cnc3c2C[C@@H](C(=O)O)N(C(=O)C(c2ccccc2)c2ccccc2)C3)ccc1N(C)C [PD123319]
PAX2 expression, fold increase ([1]; DU145, 48 hours): 7 fold
PAX2 expression, fold increase ([1]; DU145, 96 hours): 8 fold

N#CC(=C(/N)Sc1ccccc1N)/C(C#N)=C(\N)Sc1ccccc1N [U0126]
phospho-JNK protein levels [2]: did not decrease; also recorded: failed to decrease phospho-JNK protein levels
phospho-PAX2 protein levels [3]: significant decrease or suppression; also recorded: suppress phospho-PAX2 protein expression levels
phospho-STAT3 protein levels [4]: reduced phospho-STAT3 protein levels; also recorded: suppress phospho-STAT3 protein levels
PAX2 expression [1, 10]: significant reduction of PAX2 expression
PAX2 protein levels [5]: suppress PAX2 protein levels

CCCCc1nc(Cl)c(CO)n1Cc1ccc(-c2ccccc2-c2nn[nH]n2)cc1 [Los, Losartan]
phospho-JNK protein levels [2]: did not decrease; also recorded: failed to decrease phospho-JNK protein levels
phospho-PAX2 protein levels [3]: significant decrease or suppression; also recorded: suppress phospho-PAX2 protein expression levels
ERK protein levels [6]: no effect
phospho-STAT3 protein levels [4]: reduced phospho-STAT3 protein levels; also recorded: suppress phospho-STAT3 protein levels
phospho-ERK protein level [7]: reduced the amount of phospho-ERK
phospho-ERK protein level ([7]; listed as Losartan): suppresses phospho-ERK 1/2
proliferation rate decreased by ([8]; Los): 50%
effect of AngII on proliferation ([8]; pre-treating with Los for 30 min): suppressed the effect of AngII on proliferation
PAX2 expression reduced by, compared to untreated control ([1]; DU145, 48 hours): 37%
PAX2 expression reduced by, compared to untreated control ([1]; DU145, 72 hours): 50%
effect of AngII on PAX2 expression ([1]; DU145, Los (FIG. 21 legend)): blocks the effect of Angiotensin II
PAX2 protein levels [5]: significant reduction of PAX2 expression
PAX2 protein levels ([5]; listed as Losartan): suppress PAX2 protein levels

COc1cccc(-c2cc(=O)c3ccccc3o2)c1N [PD98059]
phospho-PAX2 protein levels [3]: significant decrease or suppression; also recorded: suppress phospho-PAX2 protein expression levels
phospho-STAT3 protein levels [4]: reduced phospho-STAT3 protein levels; also recorded: suppress phospho-STAT3 protein levels
PAX2 expression [1, 10]: decreased PAX2
PAX2 protein levels [5]: suppress PAX2 protein levels

Angiotensin II (DRVYIHPF; Angiotensin-2; UniProt P01019 25-32, looked up) [AngII]
proliferation rate ([8]; AngII, 72 h): two- to three-fold increase; also recorded: increases DU145 cell proliferation
decrease in DEFB1 expression relative to untreated hPrEC cells ([9]; 72 hours): 35%
decrease in DEFB1 expression relative to untreated hPrEC cells ([9]; 96 hours): 50%
DEFB1 expression levels ([9]; hPrEC, AngII (FIG. 25 legend)): decreases DEFB1 expression levels
PAX2 expression ([1]; DU145, AngII treatment over 30 min to 48 hour): progressively increased over time
increase in PAX2 expression relative to untreated hPrEC cells ([1]; hPrEC, 72 hours): 66%
increase in PAX2 expression relative to untreated hPrEC cells ([1]; hPrEC, 96 hours): 79%
PAX2 expression levels ([1]; hPrEC, AngII (FIG. 25 legend)): increases PAX2 expression levels
PAX2 expression as % of PAX2 levels in PC3 cells ([1]; hPrEC, AngII, 72 hours): 77%
PAX2 expression as % of PAX2 expression in PC3 cells ([1]; hPrEC, AngII, 96 hours): 89%

NC(=O)c1ncn([C@@H]2O[C@H](CO)[C@@H](O)[C@H]2O)c1N [AICAR, 5-Aminoimidazole-4-carboxamide-1-β-4-ribofuranoside]
phospho-PAX2 protein levels [3]: suppression; also recorded: suppress phospho-PAX2 protein expression levels
phospho-STAT3 protein levels [4]: suppressed; also recorded: suppress phospho-STAT3 protein levels
PAX2 protein levels [5]: suppression of PAX2 expression; also recorded: suppress PAX2 protein levels
